# Measured values: US7238775B2, “Receptor(SSTR4)-selective somatostatin analogs” (The Salk Institute for Biological Studies, priority 2002, dated 2007)
# Several values for one entry are separate records, joined by “and”; a condition that tells them apart may be missing. Equal entries are not always repeated. Numbered stars: 1 amine (or outer) side, 2 acyl side, 3 side chain; on linkers, the order of the positions; unused ones are H or OH. Bridge positions count the residues as written; N and C are the ends. Square brackets hold non-standard residues; d marks the D form. Peptide text beside a SMILES is read from it. * marks the point of attachment. DOTA = O=C(O)CN1CCN(CC(=O)O)CCN(CC(=O)*)CCN(CC(=O)O)CC1; d2Nal(3S-Me) = C[C@@H](c1ccc2ccccc2c1)[C@@H](N)C(=O)O; Phe(4-NH2) = Nc1ccc(C[C@H](N)C(=O)O)cc1; X2 = NC(=O)N[C@@H](CS[*:2])C(=O)[*:1]
# Molecular target: T1, hSSTR4 (Homo sapiens, UniProt P31391)
# T1 construct: expressed in transfected cells; host or cells: CHO-K1 cells and CCL39 cells
# T1 sequence (P31391 whole entry): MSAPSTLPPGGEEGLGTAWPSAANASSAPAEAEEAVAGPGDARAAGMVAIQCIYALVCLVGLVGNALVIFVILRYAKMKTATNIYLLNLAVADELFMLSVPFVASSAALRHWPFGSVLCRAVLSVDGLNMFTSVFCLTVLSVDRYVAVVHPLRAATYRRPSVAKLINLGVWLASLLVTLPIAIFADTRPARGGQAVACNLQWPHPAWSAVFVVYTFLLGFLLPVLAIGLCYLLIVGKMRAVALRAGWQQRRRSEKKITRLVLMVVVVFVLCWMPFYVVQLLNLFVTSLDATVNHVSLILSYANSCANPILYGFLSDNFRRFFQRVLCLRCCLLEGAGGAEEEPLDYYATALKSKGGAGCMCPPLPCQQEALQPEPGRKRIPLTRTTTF
# Assay: Displacement of 125I-[Leu8,D-Trp22,Tyr25]SRIF-28 from cloned receptor, membrane pellet autoradiography
# Assay type: binding
# Conditions: not given
# Protocol: In vitro Bioassay: The effects of the various somatostatin analogs are tested in vitro for their ability to bind to isolated cloned receptors expressed on CHO-K1 cells and CCL39 cells. CHO-K1 cells are grown in Ham's F-12 medium, and CCL39 cells are grown in Dulbecco's modified Eagle's medium/Ham's F-12(1:1) mix, supplemented with 10% fetal bovine serum, 100 U/ml penicillin and 100 μg/ml streptomycin, in humidified air containing 5% CO2 at 37° C.
# Cells are washed twice with and scraped into ice-cold 0.05 M Tris-HCl (pH 7.4), collected by centrifugation, and homogenized using a rotor/stator/system in the same buffer. After centrifugation at 120 g for 5 min at 4° C., the supernatant is collected and centrifuged again at 48,000 g for 30 min at 4° C. The resulting pellet is resuspended in ice-cold Tris buffer, transferred into a microfuge tube, and centrifuged at 20,000 g for 15 min at 4° C. After withdrawal of the supernatant, the membrane pellet is stored at −80° C.
# Receptor autoradiography is performed on 20 μm thick cryostat sections of the membrane pellets, mounted on microscope slides, and then stored at −20° C. […] Increasing concentrations of the unlabeled peptide are used ranging from 0.1-1000 nM. […] IC50 values are calculated after quantification of the data using a computer-assisted image processing system as known in this art.
# The numbers in parentheses indicate the number of times the particular binding test was carried out.
row,Compound,selectivity in binding to SSTR4 compared with the other 4 receptors (in words)
1,C[C@@H]1NC(=O)[C@H](Cc2ccccc2)NC(=O)[C@@H](NC(=O)CN2CCN(CC(=O)O)CCN(CC(=O)O)CCN(CC(=O)O)CC2)CSSC[C@@H](C(=O)O)NC(=O)[C@H](Cc2ccccc2)NC(=O)[C@H]([C@@H](C)O)NC(=O)[C@H](CCCCN)NC(=O)[C@H](Cc2c[nH]c3ccccc23)NC1=O [Peptide 12C] ({DOTA}-CFAWKTFC-OH; disulfide 1-8),continues to show selectivity in binding to hSSTR4
2,"C[C@@H](O)[C@@H]1NC(=O)[C@H](CCCCN)NC(=O)[C@@H]([C@@H](C)c2ccc3ccccc3c2)NC(=O)[C@H](Cc2ccc(O)cc2)NC(=O)[C@H](Cc2ccccc2)NC(=O)[C@@H](N)CSSC[C@@H](C(=O)O)NC(=O)[C@H](Cc2ccccc2)NC1=O [Peptide No. 17, (cyclo)H-Cys-Phe-Tyr-threo-(2R,3S)C^βMe-2Nal-Lys-Thr-Phe-Cys-OH] (H-CFY[d2Nal(3S-Me)]KTFC-OH; disulfide 1-8)",show selectivity for binding to SSTR4
3,"C[C@@H]1NC(=O)[C@H](Cc2ccccc2)NC(=O)[C@@H](N)CSSC[C@@H](C(=O)O)NC(=O)[C@H](Cc2ccccc2)NC(=O)[C@H]([C@@H](C)O)NC(=O)[C@H](CCCCN)NC(=O)[C@@H](Cc2c[nH]c3ccccc23)NC1=O [Peptide No. 11, (cyclo)H-Cys-Phe-Ala-D-Trp-Lys-Thr-Phe-Cys-OH] (H-CFA[dW]KTFC-OH; disulfide 1-8)",selectively binds to SSTR4

# Same assay, conditions: inhibition of 125I-SRIF-28 radioligand binding, cloned human receptor
row,Compound,IC50
1,"C[C@@H](O)[C@@H]1NC(=O)[C@H](CCCCN)NC(=O)[C@@H](Cc2c[nH]c3ccccc23)NC(=O)[C@H](Cc2ccc(N)cc2)NC(=O)[C@H](Cc2ccccc2)NC(=O)[C@@H](NC(N)=O)CSSC[C@@H](C(=O)O)NC(=O)[C@H](Cc2ccccc2)NC1=O [Peptide No. 4, (cyclo)Cbm-Cys-Phe-4Aph-D-Trp-Lys-Thr-Phe-Cys-OH] (F[Phe(4-NH2)][dW]KTFC-OH; linker N-7 via X2)",1.1 ± 0.2 nM
2,"C[C@@H](O)[C@@H]1NC(=O)[C@H](CCCCN)NC(=O)[C@@H](Cc2c[nH]c3ccccc23)NC(=O)[C@H](Cc2ccc(N)cc2)NC(=O)[C@H](Cc2ccccc2)NC(=O)[C@@H](NC(=O)[C@@H](N)Cc2ccc(O)cc2)CSSC[C@@H](C(=O)O)NC(=O)[C@H](Cc2ccccc2)NC1=O [Peptide No. 7, (cyclo)H-Tyr-Cys-Phe-4Aph-D-Trp-Lys-Thr-Phe-Cys-OH]",1.2 ± 0.3 nM
3,C[C@@H]1NC(=O)[C@H](Cc2ccccc2)NC(=O)[C@@H](NC(=O)[C@@H](N)Cc2ccc(O)c(I)c2)CSSC[C@@H](C(=O)O)NC(=O)[C@H](Cc2ccccc2)NC(=O)[C@H]([C@@H](C)O)NC(=O)[C@H](CCCCN)NC(=O)[C@H](Cc2c[nH]c3ccccc23)NC1=O [Peptide No. 13A],~3.5 nM
4,"C[C@@H](O)[C@@H]1NC(=O)[C@H](CCCCN)NC(=O)[C@H](Cc2c[nH]c3ccccc23)NC(=O)[C@H](Cc2ccc(N)cc2)NC(=O)[C@H](Cc2ccccc2)NC(=O)[C@@H](N)CSSC[C@@H](C(=O)O)NC(=O)[C@H](Cc2ccc(O)cc2)NC1=O [Peptide No. 9, (cyclo)H-Cys-Phe-4Aph-Trp-Lys-Thr-Tyr-Cys-OH]",1.1 ± 0.2 nM
5,"C[C@@H]1NC(=O)[C@H](Cc2ccccc2)NC(=O)[C@@H](NC(=O)[C@@H](N)Cc2ccc(O)cc2)CSSC[C@@H](C(=O)O)NC(=O)[C@H](Cc2ccccc2)NC(=O)[C@H]([C@@H](C)O)NC(=O)[C@H](CCCCN)NC(=O)[C@@H](Cc2c[nH]c3ccccc23)NC1=O [Peptide No. 14, (cyclo)H-Tyr-Cys-Phe-Ala-D-Trp-Lys-Thr-Phe-Cys-OH]",1.1 ± 0.2 nM
6,C[C@@H]1NC(=O)[C@H](Cc2ccccc2)NC(=O)[C@@H](N)CSSC[C@@H](C(=O)O)NC(=O)[C@H](C)NC(=O)[C@H]([C@@H](C)O)NC(=O)[C@H](CCCCN)NC(=O)[C@H](Cc2c[nH]c3ccccc23)NC1=O [Peptide No. 12A] (H-CFAWKTAC-OH; disulfide 1-8),3.5 ± 0.8 nM
7,"C[C@@H]1NC(=O)[C@H](Cc2ccccc2)NC(=O)[C@@H](N)CSSC[C@@H](C(=O)O)NC(=O)[C@H](Cc2ccccc2)NC(=O)[C@H]([C@@H](C)O)NC(=O)[C@H](CCCCN)NC(=O)[C@@H](Cc2c[nH]c3ccccc23)NC1=O [Peptide No. 11, (cyclo)H-Cys-Phe-Ala-D-Trp-Lys-Thr-Phe-Cys-OH] (H-CFA[dW]KTFC-OH; disulfide 1-8)",0.98 nM
8,"C[C@@H](O)[C@@H]1NC(=O)[C@H](CCCCN)NC(=O)[C@H](Cc2c[nH]c3ccccc23)NC(=O)[C@H](Cc2ccc(N)cc2)NC(=O)[C@H](Cc2ccccc2)NC(=O)[C@@H](NC(=O)[C@H](Cc2ccc(O)cc2)NC(N)=O)CSSC[C@@H](C(=O)O)NC(=O)[C@H](Cc2ccccc2)NC1=O [Peptide No. 8, (cyclo)Cbm-Tyr-Cys-Phe-4Aph-Trp-Lys-Thr-Phe-Cys-OH]",~1.2 nM and 1.2 nM
